According to patent US20180289739A1, “Combination Therapy for Treating Proliferative Diseases” (BIONOMICS LIMITED, priority 2009, published 2018):

What was measured:
[1] = tested on: Human umbilical vein endothelial cells (HUVECs), normal quiescent type endothelial cells (Norm); test: Proliferation Assay - Quiescent Endothelium (MTT); type: cell-based; conditions: HUVEC, 48 hrs
Experimental: Proliferation Assay—Quiescent Endothelium:
(§1) Human umbilical vein endothelial cells (CC-2519, Clonetics) were plated at 15000 cells/well in EBM2 (CC-3156, Clonetics)+0.5% FBS (CC-4101A, Clonetics)+GA-1000 (CC-4381A, Clonetics) in a 96 well plate in triplicate. Cells were cultured overnight at 37° C. 5% CO2. Medium was subsequently replaced with fresh medium including the compound or negative control. Cells were cultured for a period of 48 hrs. An MTT assay was performed to measure changes in cell numbers. Briefly, 20 μl of MTT reagent was added to cells containing 100 μl of EBM2+0.5% FBS and incubated at 37° C. for 2 hours. Absorbance was measured at 492 nm.

[2] = tested on: Human umbilical vein endothelial cells (HUVECs), tumour type activated endothelial cells (Tum); test: Proliferation Assay - Activated Endothelium (MTT); type: cell-based; conditions: for IC50: Homo sapiens, HUVEC, tumour type activated endothelial cells, 48 hrs; for Potency against activated (tumour) versus quiescent (normal) endothelial cells: activated compared with quiescent endothelial cells
Experimental: Proliferation Assay—Activated Endothelium:
as §1, with “2500” for “15000”, “EGM2 (CC-3162,” for “EBM2 (CC-3156, Clonetics)+0.5% FBS (CC-4101A, Clonetics)+GA-1000 (CC-4381A,”, “EGM2” for “EBM2+0.5% FBS”

MCF-7 = test: Growth inhibition of cancer cell line, Sulforhodamine B (SRB) or Systmex cell counting (CC) assay; type: cell-based; conditions: Homo sapiens, MCF7, concentration required to inhibit net cell growth by 50%
[3] = tested on: MDA-MB-231 solid orthotopic tumours; test: Tumour Growth Inhibition, MDA-MB-231 orthotopic tumours; type: in vivo, Balb/c nu/nu mice; conditions: 40 mg/kg i.v., two cycles; monitored up to 72 days; vs vehicle, p<0.001 from day 4 to Day 70
Experimental: Tumour Growth Inhibition:
Balb/c nu/nu mice bearing MDA-MB-231 solid orthotopic tumours were treated with compound Example 2 at 40 mg/kg. Animals were i.v. dosed with a total of two cycles of Example 2 treatment. Each cycle was dosing on […] followed by a three week no-dosing period. Tumour growth represented as a ratio to initial tumour volume is shown over a total of 72-days.
Tumour growth as well as animal health were monitored for up to 72 days post-day 1 of treatment. […] Significant differences in tumour growth between Example 2 treated (n=64) and vehicle treated (n=20) animals were observed as early as day 4 (p<0.001; unpaired t-test; Prism® analysis) through to Day 70.

tubulin = test: Tubulin polymerisation inhibition; type: biochemical

Compound `COc1ccc2c(C(=O)c3cc(OC)c(OC)c(OC)c3)c(Br)oc2c1` [Comparator D] has an IC50 [1] of 100 to 1000 nM, an IC50 [2] of 100 to 1000 nM and an IC50 (MCF-7) of 500 nM.
For `COc1cc(C(=O)c2c(C)oc3c(OP(=O)([O-])[O-])c(OC)ccc23)cc(OC)c1OC.[Na+].[Na+]` [Example 2, Disodium 6-methoxy-2-methyl-3-(3,4,5-trimethoxybenzoyl)benzofuran-7-yl Phosphate], the “Tumour growth (ratio to initial tumour volume)” value [3] was “clearly show tumour growth inhibition”.
With `COc1cc(C(=O)c2c(C)oc3c(O)c(OC)ccc23)cc(OC)c1OC` [Example 1, 2-Methyl-7-hydroxy-3-(3,4,5-trimethoxybenzoyl)-6-methoxybenzofuran] the IC50 [1] was 10 to 100 nM, the Tubulin polymerisation inhibition (tubulin) was “potent tubulin polymerisation inhibitor” and the IC50 [2] was 0.1 to 1 nM. The “Potency against activated (tumour) versus quiescent (normal) endothelial cells” value [2] was “high potency towards tumour endothelial cells (activated) over normal endothelial cells (quiescent)” and the IC50 (MCF-7) was 2 nM.
For `COc1ccc2c(C(=O)c3cc(OC)c(OC)c(OC)c3)coc2c1` [Comparator C], the IC50 [1] was 10 to 100 nM, the IC50 [2] was 10 to 100 nM and the IC50 (MCF-7) was 55 nM.
For `COc1ccc(/C=C\c2cc(OC)c(OC)c(OC)c2)cc1O` [Combretastatin A4], the “Potency against activated (tumour) versus quiescent (normal) endothelial cells” value [2] was “equally potent against quiescent and activated endothelial cells”.
